In patent publication US8906904B2, “Alkoxy pyrazoles as soluble guanylate cyclase activators” (Boehringer Ingelheim International GmbH, priority 2012, dated 2014):
Converted amounts (≈) assume the structure as drawn.

What was measured:
[1] = target: T1, human soluble guanylate cyclase alpha 1 and beta 1 subunits (sGC) (Homo sapiens, UniProt Q02108+Q02153); experiment: sGC cellular activator assay (cGMP, HTRF); type: cell-based; conditions: CHO cells stably expressing human sGC alpha 1/beta 1, preincubated with 40 microM ODQ; cGMP readout; assay run with and without 50% human serum, Table 2 does not say which
T1 construct: expressed in transfected cells; host or cells: Chinese hamster ovary (CHO) cells, stably transfected
T1 sequence (Q02108 1-690): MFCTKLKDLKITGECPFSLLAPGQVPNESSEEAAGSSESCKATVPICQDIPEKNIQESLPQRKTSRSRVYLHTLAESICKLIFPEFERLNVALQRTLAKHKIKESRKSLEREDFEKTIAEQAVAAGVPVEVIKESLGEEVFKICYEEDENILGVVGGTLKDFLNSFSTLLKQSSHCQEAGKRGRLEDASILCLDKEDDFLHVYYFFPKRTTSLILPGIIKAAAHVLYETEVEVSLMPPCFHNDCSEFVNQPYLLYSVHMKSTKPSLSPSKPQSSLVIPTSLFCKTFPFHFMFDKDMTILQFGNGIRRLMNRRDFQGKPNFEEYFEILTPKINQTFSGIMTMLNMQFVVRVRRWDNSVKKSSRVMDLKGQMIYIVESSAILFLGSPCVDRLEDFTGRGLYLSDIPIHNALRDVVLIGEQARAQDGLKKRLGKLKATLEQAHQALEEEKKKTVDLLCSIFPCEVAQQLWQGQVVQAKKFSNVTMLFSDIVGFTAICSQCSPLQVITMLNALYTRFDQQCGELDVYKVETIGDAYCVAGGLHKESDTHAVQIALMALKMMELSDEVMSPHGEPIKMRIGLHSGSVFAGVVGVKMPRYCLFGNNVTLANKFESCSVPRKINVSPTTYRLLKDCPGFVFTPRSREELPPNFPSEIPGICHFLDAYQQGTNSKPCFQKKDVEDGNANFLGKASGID
T1 sequence (Q02153 1-619): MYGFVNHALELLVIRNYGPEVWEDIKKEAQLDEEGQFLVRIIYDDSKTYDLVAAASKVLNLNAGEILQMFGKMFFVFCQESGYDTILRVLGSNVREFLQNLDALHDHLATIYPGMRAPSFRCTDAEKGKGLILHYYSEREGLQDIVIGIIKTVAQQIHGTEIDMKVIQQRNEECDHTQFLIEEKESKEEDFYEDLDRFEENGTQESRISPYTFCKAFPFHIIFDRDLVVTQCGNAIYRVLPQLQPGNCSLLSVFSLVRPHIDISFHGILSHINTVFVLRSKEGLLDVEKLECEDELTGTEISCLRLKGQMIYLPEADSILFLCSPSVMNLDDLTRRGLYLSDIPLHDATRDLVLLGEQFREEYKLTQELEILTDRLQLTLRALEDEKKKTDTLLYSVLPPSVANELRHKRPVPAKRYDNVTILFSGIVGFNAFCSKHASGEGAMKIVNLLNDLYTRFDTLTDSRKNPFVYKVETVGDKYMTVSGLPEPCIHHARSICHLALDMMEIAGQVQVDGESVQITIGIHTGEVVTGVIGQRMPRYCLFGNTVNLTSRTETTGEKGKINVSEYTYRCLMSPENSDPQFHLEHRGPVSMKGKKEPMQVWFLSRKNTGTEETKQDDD
Description: The sGC cellular activator assay is performed in the presence and absence of 50% human serum (HS) using Chinese hamster ovary cells that have been stably transfected to express the human soluble guanylate cyclase alpha 1 and beta 1 subunits (sGC). Cells are preincubated with 40 microM 1H-[1,2,4]oxadiazolo[4,3-a]quinoxalin-1-one (ODQ), an sGC inhibitor, for one h in buffer containing 0.1% bovine serum albumin and 3-isobutyl-1-methylxanthine (IBMX). Concentration response curves are prepared for test compounds in DMSO. An intermediate dilution of the compounds is performed in either buffer containing IBMX or type AB HS containing IBMX. Diluted compounds are added to cells and they are incubated at room temperature for thirty min. cGMP is measured using a CisBio homogeneous time resolved fluorescence kit and the EC50 is calculated for each compound.
Representative compounds of the present invention were tested for activity the above assay. Preferred compounds have an EC50 of <1,000 nM in the above assay and more preferred compounds have an EC50<200 nM.

[2] = Assessment of solubility (McIlvaine buffers, 24 h shake, UPLC-UV); type: physicochemical; conditions: kinetic from dmso stock
Description: Solubility is measured by the following method.
100 uL, 10 mM DMSO stock solution of each compound is prepared in a 96 well plate format. The experiment is done in single determination at 3 pH values (2.2, 4.5 and 6.8). For each pH and one reference, 40 uL of each compound is needed.
McIlvaine pH 2.2: To 2.076 g citric acid monohydrate and 0.043 g Na2HPO4×2H2O add 100 ml deionized water
McIlvaine pH 4.5: To 1.166 g citric acid monohydrate and 1.585 g Na2HPO4×2H2O add 100 ml deionized water
McIlvaine pH 6.8: To 0.476 g citric acid monohydrate and 2.753 g Na2HPO4×2H2O add 100 ml deionized water
With a suitable liquid handling device (Multipette® or a liquid handler) 390 uL of each buffer solution and 10 uL of compound is added to each well of a 96 deep well plate. The plates are covered firmly and shaken for 24 h on an over head shaker (at 54 RPM) at room temperature. The DMSO content in the final buffer is 2.5% v/v.
After 24 h the plates are centrifuged to remove droplets on the lid before opening (for ˜5 min at 2500 RPM).
The filtration is done under vacuum with Millipore 96 well filter plate. Filtrate is collected in a deep well plate and transferred to a suitable plate for UPLC analysis.
The reference plate is prepared by adding 10 uL of compound to 390 uL of 50:50 acetonitrile/water in a 96 deep well plate and transferred to a suitable plate for UPLC analysis. Wells are checked visually for precipitation, any presence noted under comments in reported results.
The samples are measured with UPLC-UV using the chromatographic method described below.
Waters Empower®2 software is used for generating Sample Sets (according to the plate layout), Sample Set Methods and Instrument Methods.
One Sample Set comprises the methods for three 96 well plates (one reference plate and two sample plates, and includes one Sample Set Method and one Instrument Method).
3. Data Processing and Analysis
The UV chromatograms collected at 254 nm are integrated and processed.
It is assumed that the compound is completely dissolved in the reference solution (50:50 acetonitrile/water)

SMILES | EC50 [1] [nM] | solubility at 24 h ([2]; pH 2.2, aqueous buffer) [µg/mL] | solubility at 24 h ([2]; pH 4.5, aqueous buffer) [µg/mL] | solubility at 24 h ([2]; pH 6.8, aqueous buffer) [µg/mL]
Cc1cccc(-c2cccc(-n3ncc(C(=O)O)c3OC(C)C)n2)c1OCc1ccc2c(c1)CCN([C@@H]1CCCOC1)C2 [Compound 113] | 24 | 94 (≈ 161 µM) | 80 (≈ 137 µM) | 84 (≈ 144 µM)
CCOc1c(C(=O)O)cnn1-c1cccc(-c2cccc(C)c2OCc2ccc3c(c2C)CCN(C2CCOCC2)C3)n1 [Compound 114] | 40 | 120 (≈ 206 µM) | 99 (≈ 170 µM) | 100 (≈ 172 µM)
Cc1cccc(-c2cccc(-n3ncc(C(=O)O)c3OC(C)C)n2)c1OCc1ccc2c(c1)CCN([C@H]1CCCOC1)C2 [Compound 115] | 68 | 89 (≈ 153 µM) | 71 (≈ 122 µM) | 43 (≈ 73.8 µM)
Cc1cccc(-c2cccc(-n3ncc(C(=O)O)c3OC(C)C)n2)c1OCc1ccc2c(c1C)CCN([C@H]1CCCOC1)C2 [Compound 117] | 29 | 102 (≈ 171 µM) | 82 (≈ 137 µM) | 85 (≈ 142 µM)
CCOc1c(C(=O)O)cnn1-c1cccc(-c2cccc(C)c2OCc2cc(C)c3c(c2)CN(C2CCOCC2)C3)n1 [Compound 118] | 39 | 110 (≈ 193 µM) | 84 (≈ 148 µM) | 92 (≈ 162 µM)
CCOc1c(C(=O)O)cnn1-c1cccc(-c2cccc(C)c2OCc2ccc3c(c2C)CN(C2CCOCC2)C3)n1 [Compound 119] | 57 | 110 (≈ 193 µM) | 89 (≈ 157 µM) | 97 (≈ 171 µM)
COc1c(C(=O)O)cnn1-c1cccc(-c2cccc(C)c2OCc2cc(C)c3c(c2C)CCN(C2CCOCC2)C3)n1 [Compound 120] | 12 | 110 (≈ 189 µM) | 94 (≈ 161 µM) | 97 (≈ 166 µM)
COc1c(C(=O)O)cnn1-c1cccc(-c2cccc(C)c2OCc2cc3c(cc2C)CN(C2CCOCC2)CC3)n1 [Compound 121] | 40 | 110 (≈ 193 µM) | 90 (≈ 158 µM) | 93 (≈ 164 µM)
COc1c(C(=O)O)cnn1-c1cccc(-c2cc(C)ccc2OCc2ccc3c(c2C)CCN(C2CCOCC2)C3)n1 [Compound 124] | 47 | 100 (≈ 176 µM) | 8.6 (≈ 15.1 µM) | 44 (≈ 77.4 µM)
CCOc1c(C(=O)O)cnn1-c1cccc(-c2cccc(C)c2OCc2ccc3c(c2C)CCN([C@H]2CCOC2)C3)n1 [Compound 125] | 27 | 110 (≈ 193 µM) | 76 (≈ 134 µM) | 78 (≈ 137 µM)
CCOc1c(C(=O)O)cnn1-c1cccc(-c2cccc(C)c2OCc2ccc3c(c2C)CCN([C@@H]2CCOC2)C3)n1 [Compound 126] | 58 | 96 (≈ 169 µM) | 74 (≈ 130 µM) | 78 (≈ 137 µM)
